{"source": "paper PMC8234734", "about": "“Pharmacokinetics and Molecular Modeling Indicate nAChRα4-Derived Peptide HAEE Goes through the Blood–Brain Barrier” (Biomolecules, 2021)", "key": {"[1]": {"assay": "In vitro stability assay of HAEE in human plasma", "type": "in vitro ADME", "conditions": "1 mM in PBS, 20 µL diluted in 80 µL fresh human plasma, 37 °C, 24 h, MeOH precipitation, RP-HPLC UV 205 nm; data not shown", "experimental": "An in vitro assay of the unlabeled peptide stability was performed as described in [19]. Briefly, HAEE was prepared as a 1 mM solution in phosphate-buffered saline and 20 µL of the peptide solution was diluted in 80 µL of human plasma (freshly taken). The solution was incubated at 37 °C for different times, and the reaction was stopped by adding the Roche cOmplete Protease Inhibitor Cocktail (Roche Molecular Biochemicals, Mannheim, Germany). The bulk of the plasma proteins (but none of the peptide) was precipitated in cold methanol (1:4 (v/v) mixture/MeOH) for 1 h at […]. The precipitated proteins were pelleted by centrifugation at 10,000× g for 10 min at 4 °C. The supernatant containing the peptide was concentrated five times under vacuum and separated by RP-HPLC. The area of the peak (UV absorbance at 205 nm) corresponding to the intact peptide was measured and compared with an equivalent sample incubated in phosphate-buffered saline."}, "[2]": {"assay": "Pharmacokinetics of HAEE in rat blood after single i.v. bolus (dose dependence, chronic administration)", "conditions": "for Cmax (maximum concentration in the blood) / AUC(0–∞) / T1/2(el) (elimination half-life) / Tmax: rat blood; for Cmax (maximum concentration in the blood): n = 6, sampling 2-30 min; for AUC(0–∞) / T1/2(el) (elimination half-life) / Tmax / ClT (total body clearance) / Kel (elimination rate constant, central compartment) / MRT (residence time) / Vd(c) (volume of distribution in the central compartment at Cmax) / Vd(extrap) / Vd(β) (volume of distribution in the elimination phase): n = 6", "experimental": "In experiments on rats (Table 1, experimental groups 2–5), intravenous (i.v.) administration of the peptide and blood sampling were performed through the jugular veins. For this, in rats anesthetized with a mixture of ketamine (91 mg/kg) and xylazine (9.1 mg/kg), on the ventral side, in the area adjacent to the forelimbs and neck, two longitudinal skin incisions about 2.5 cm long were made on the right and left, and the jugular veins were dissected. An intravenous Flexicath G24 catheter (for heparin and peptide administration) (Medica LLC, Ivanovo, Russia) was installed in the left jugular vein and Flexicath G22 (for blood collection) in the right jugular vein. To prevent blood coagulation, 80 μL of heparin (5000 I.U./mL) was injected through the Flexicath G24 port before the injection of the peptide, and after 5 min a mixture of HAEE and [^3H]HAEE (400 μCi, in doses of 50, 300 or 900 μg/kg) in 200 μL of saline solution was injected for 10–15 s. Following that, after 2, 4, 6, 10, 20 and 30 min, approximately 0.3 mL of venous blood was collected into pre-weighed plastic tubes. After collection, the blood tubes were immediately frozen in liquid nitrogen and weighed. Before the pharmacokinetic study, rats in experimental group 5 were injected daily with i.p. peptide HAEE at a dose of 300 μg/kg for 28 days.\nFrozen and weighed tissue samples in plastic tubes were freeze-dried for 48 h. The freeze-dried tissue samples were heated at 65 °C for 30 min, after which they were homogenized, and the peptide fraction was extracted with 90% aqueous acetonitrile containing 1% TFA [13]. To facilitate HPLC analysis of radioactively labeled HAEE and normalize the loss of the peptide during extraction, 10 μg of HAEE was added to the extraction solution for each sample. After centrifugation, the solution containing HAEE and blood components was dried under reduced pressure, stripped with methanol and re-centrifuged. The resulting solution containing a mixture of HAEE and [^3H]HAEE was subjected to evaporation under reduced pressure, re-extraction with 0.1% aqueous TFA solution and subsequent centrifugation. Quantitative analysis of the HAEE peptide was performed using HPLC on a Kromasil C18 column, 4 × 150 mm (Nouryon-Separation Products, Bohus, Sweden) in methanol concentration gradient (12–26% for 13 min), in 0.1% HFBA (heptafluorobutyric acid). The fraction containing the HAEE peptide was collected and its [^3H]HAEE content was determined by liquid scintillation counting. The obtained radioactivity value was normalized to the area of the HAEE peak in the chromatogram (UV absorbance at 220 nm).\nTo calculate the pharmacokinetic parameters, we used the values of HAEE peptide concentrations in blood and tissues averaged over three (rabbit) or six (rats and mice) animals. All quantitative values are given as means ± standard deviation. The calculation of pharmacokinetic parameters was performed by combining the model and non-model approaches using the software Borgia 1.03 (NPP Nauka Plus, Rovno, Ukraine) and SigmaPlot 11.0 (Systat Software, San Jose, CA, USA)."}, "[3]": {"conditions": "single i.v. bolus 300 μg/kg after a 28 day course of unlabeled HAEE 300 μg/kg/day"}, "[4]": {"conditions": "rat, i.v. bolus, range over doses of 50, 300 and 900 µg/kg"}, "[5]": {"conditions": "rat, single i.v. bolus 50 μg/kg"}, "[6]": {"conditions": "rat, single i.v. bolus 300 μg/kg after a 28 day course of unlabeled HAEE 300 μg/kg/day"}, "[7]": {"conditions": "rat, single i.v. bolus 300 μg/kg"}, "[8]": {"conditions": "rat, single i.v. bolus 900 μg/kg"}}}
{"substance": "Acetyl-His-Ala-Glu-Glu-Amide [HAEE]", "values": [{"measurement": "Stability in human plasma (intact peptide peak area vs sample in PBS)", "setting": "[1]", "value": "no significant degradation"}, {"measurement": "Cmax (maximum concentration in the blood)", "setting": "[2]; single i.v. bolus 50 μg/kg HAEE + [3H]HAEE, HPLC + liquid scintillation", "value": 73.9, "unit": "ng/mL"}, {"measurement": "AUC(0–∞)", "setting": "[2]; single i.v. bolus 50 μg/kg", "value": "1383 (ng/mL) × min"}, {"measurement": "T1/2(el) (elimination half-life)", "setting": "[2]; single i.v. bolus 50 μg/kg", "value": 23, "unit": "min"}, {"measurement": "Tmax", "setting": "[2]; single i.v. bolus 50 μg/kg", "value": 4, "unit": "min"}, {"measurement": "Cmax (maximum concentration in the blood)", "setting": "[2]; single i.v. bolus 300 μg/kg HAEE + [3H]HAEE, HPLC + liquid scintillation", "value": 439, "unit": "ng/mL"}, {"measurement": "AUC(0–∞)", "setting": "[2]; [3]", "value": "12,137 (ng/mL) × min"}, {"measurement": "T1/2(el) (elimination half-life)", "setting": "[2]; [3]", "value": 29, "unit": "min"}, {"measurement": "Tmax", "setting": "[2]; [3]", "value": 4, "unit": "min"}, {"measurement": "Cmax (maximum concentration in the blood)", "setting": "[2]; [3]", "value": 444, "unit": "ng/mL"}, {"measurement": "AUC(0–∞)", "setting": "[2]; single i.v. bolus 300 μg/kg", "value": "11,340 (ng/mL) × min"}, {"measurement": "T1/2(el) (elimination half-life)", "setting": "[2]; single i.v. bolus 300 μg/kg", "value": 22, "unit": "min"}, {"measurement": "Tmax", "setting": "[2]; single i.v. bolus 300 μg/kg", "value": 4, "unit": "min"}, {"measurement": "Cmax (maximum concentration in the blood)", "setting": "[2]; single i.v. bolus 900 μg/kg HAEE + [3H]HAEE, HPLC + liquid scintillation", "value": 1322, "unit": "ng/mL"}, {"measurement": "AUC(0–∞)", "setting": "[2]; single i.v. bolus 900 μg/kg", "value": "47,133 (ng/mL) × min"}, {"measurement": "T1/2(el) (elimination half-life)", "setting": "[2]; single i.v. bolus 900 μg/kg", "value": 25, "unit": "min"}, {"measurement": "Tmax", "setting": "[2]; single i.v. bolus 900 μg/kg", "value": 4, "unit": "min"}, {"measurement": "ClT", "setting": "[2]; [4]", "value": "6.7 to 13", "unit": "mL/min"}, {"measurement": "MRT", "setting": "[2]; [4]", "value": "32 to 36", "unit": "min"}, {"measurement": "T1/2(el)", "setting": "[2]; [4]", "value": "22 to 25", "unit": "min"}, {"measurement": "ClT (total body clearance)", "setting": "[2]; [5]", "value": 13.0, "unit": "mL/min"}, {"measurement": "Kel (elimination rate constant, central compartment)", "setting": "[2]; [5]", "value": 0.031, "unit": "min⁻¹"}, {"measurement": "MRT (residence time)", "setting": "[2]; [5]", "value": 33, "unit": "min"}, {"measurement": "Vd(c) (volume of distribution in the central compartment at Cmax)", "setting": "[2]; [5]", "value": 107, "unit": "mL"}, {"measurement": "Vd(extrap)", "setting": "[2]; [5]", "value": 504, "unit": "mL"}, {"measurement": "Vd(β) (volume of distribution in the elimination phase)", "setting": "[2]; [5]", "value": 425, "unit": "mL"}, {"measurement": "ClT (total body clearance)", "setting": "[2]; [6]", "value": 8.7, "unit": "mL/min"}, {"measurement": "Kel (elimination rate constant, central compartment)", "setting": "[2]; [6]", "value": 0.024, "unit": "min⁻¹"}, {"measurement": "MRT (residence time)", "setting": "[2]; [6]", "value": 42, "unit": "min"}, {"measurement": "Vd(c) (volume of distribution in the central compartment at Cmax)", "setting": "[2]; [6]", "value": 111, "unit": "mL"}, {"measurement": "Vd(extrap)", "setting": "[2]; [6]", "value": 382, "unit": "mL"}, {"measurement": "Vd(β) (volume of distribution in the elimination phase)", "setting": "[2]; [6]", "value": 362, "unit": "mL"}, {"measurement": "ClT (total body clearance)", "setting": "[2]; [7]", "value": 9.3, "unit": "mL/min"}, {"measurement": "Kel (elimination rate constant, central compartment)", "setting": "[2]; [7]", "value": 0.031, "unit": "min⁻¹"}, {"measurement": "MRT (residence time)", "setting": "[2]; [7]", "value": 32, "unit": "min"}, {"measurement": "Vd(c) (volume of distribution in the central compartment at Cmax)", "setting": "[2]; [7]", "value": 122, "unit": "mL"}, {"measurement": "Vd(extrap)", "setting": "[2]; [7]", "value": 296, "unit": "mL"}, {"measurement": "Vd(β) (volume of distribution in the elimination phase)", "setting": "[2]; [7]", "value": 299, "unit": "mL"}, {"measurement": "ClT (total body clearance)", "setting": "[2]; [8]", "value": 6.7, "unit": "mL/min"}, {"measurement": "Kel (elimination rate constant, central compartment)", "setting": "[2]; [8]", "value": 0.028, "unit": "min⁻¹"}, {"measurement": "MRT (residence time)", "setting": "[2]; [8]", "value": 36, "unit": "min"}, {"measurement": "Vd(c) (volume of distribution in the central compartment at Cmax)", "setting": "[2]; [8]", "value": 108, "unit": "mL"}, {"measurement": "Vd(extrap)", "setting": "[2]; [8]", "value": 291, "unit": "mL"}, {"measurement": "Vd(β) (volume of distribution in the elimination phase)", "setting": "[2]; [8]", "value": 237, "unit": "mL"}, {"measurement": "Effect of chronic administration on accumulation and pharmacokinetics", "setting": "[2]; rats, 28 days daily 300 μg/kg then i.v. bolus 300 μg/kg, n = 6 vs intact rats n = 6", "value": "does not cause its accumulation in rats and does not affect the nature of its pharmacokinetics"}]}
